Drawing on patent publication US6953789B2, “Thiol compounds, their production and use” (Takeda Chemical Industries, Ltd., priority 1998, dated 2005), this text covers IC50 and inhibition for 41 compounds.

The target of one experiment is T1, recombinant human MMP-13 (Homo sapiens, UniProt P45452).
T1 construct: made in house; host or cells: baculovirus (pBlueBac4 / Bac-N-Blue; virus made in Sf9), expressed in High-Five insect cells; culture supernatant used
Description: Assay of MMP-13 inhibiting activity (fluorogenic peptide substrate). In kind it is biochemical. The note with it: Table 3; 37° C., 2 hours. The method, boiled down: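 Baculovirus-expressed human MMP-13 (High-Five cell supernatant) in pH 7.5 Tris buffer with 200 mM NaCl, 20 mM CaCl2, 0.1% Brij 35, 1 mM 2-mercaptoethanol; reaction started with 40 μM (stock) MOCAc-PLGL-A2pr(DNP)-AR-NH2, 2 h at 37 °C, stopped at pH 3.0. Fluorescence 330/405 nm; IC50 versus no-compound control.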
On to `CC(=O)S[C@@H]1CC(=O)N(Cc2ccc(Oc3ccccc3)cc2)C1` [Example 24, (R)-4-Acetylthio-1-(4-phenoxybenzyl)pyrrolidin-2-one], for which the IC50 (usually the point on the concentration scale where inhibition reaches its midpoint) came to 9 nM. Still for that read-out and setting: under `O=C1C[C@@H](S)CN1Cc1ccc(Oc2ccccc2)cc1` [Example 25, (R)-4-Mercapto-1-(4-phenoxybenzyl)pyrrolidin-2-one] stands 3 nM.

Turning to “Ethyl 3-{[(3R)-5-oxo-1-(4-phenoxybenzyl)-2-pyrrolidinyl]disulfanyl}propanoate [Example 84]”, the half-maximal inhibitory concentration (IC50) came out at 32 nM.

The same experiment, now with this note: Table 5; 37° C., 2 hours.
Consider `O=C1C[C@@H](S)[C@H](COCc2ccccc2)N1Cc1ccc(Oc2ccccc2)cc1` (relative stereo) [Example 39, Trans-5-benzyloxymethyl-4-mercapto-1-(4-phenoxybenzyl)pyrrolidin-2-one], for which the concentration for half-maximal inhibition (IC50) stood at 9 nM. On the same count and under the same terms, under `CC(=O)S[C@H]1CC(=O)N(Cc2ccc(Oc3ccccc3)cc2)[C@H]1C` [Example 175, (4S,5S)-4-Acetylthio-5-methyl-1-(4-phenoxybenzyl)pyrrolidin-2-one] stands 100 nM; under `C[C@H]1[C@@H](S)CC(=O)N1Cc1ccc(Oc2ccccc2)cc1` [Example 176, (4S,5S)-4-Mercapto-5-methyl-1-(4-phenoxybenzyl)pyrrolidin-2-one], 50 nM. Consider `CC(=O)S[C@@H]1CC(=O)N(Cc2ccc(Oc3ccccc3)cc2)[C@H]1C` [Example 177, (4R,5S)-4-Acetylthio-5-methyl-1-(4-phenoxybenzyl)pyrrolidin-2-one], for which the IC50 was 2 nM.

For `C[C@H]1[C@H](S)CC(=O)N1Cc1ccc(Oc2ccccc2)cc1` [Example 178, (4R,5S)-4-Mercapto-5-methyl-1-(4-phenoxybenzyl)pyrrolidin-2-one], the half-maximal inhibitory concentration (IC50) came to 5 nM.

In the case of `CC(=O)SC1CC(=O)N(Cc2ccc(Oc3ccccc3)cc2)C1C(N)=O` (stereo not drawn) [Example 187, trans-5-Aminocarbonyl-4-acetylthio-1-(4-phenoxybenzyl)pyrrolidin-2-one], the IC50 worked out at 360 nM. Same read-out and setting: under `NC(=O)C1C(S)CC(=O)N1Cc1ccc(Oc2ccccc2)cc1` (stereo not drawn) [Example 188, trans-5-Aminocarbonyl-4-mercapto-1-(4-phenoxybenzyl)pyrrolidin-2-one] stands 13 nM.

The experiment is the same for the next values; noted with them: Table 6; 37° C., 2 hours.
With `CC(=O)SC1CN(Cc2ccc(Oc3ccccc3)cc2)C(=O)C1C` (stereo not drawn) [Example 194, trans-4-Acetylthio-3-methyl-1-(4-phenoxybenzyl)pyrrolidin-2-one], the concentration for half-maximal inhibition (IC50) turned out to be 30 nM. On the same count and under the same terms, the figure for `CC1C(=O)N(Cc2ccc(Oc3ccccc3)cc2)CC1S` (stereo not drawn) [Example 195, trans-4-Mercapto-3-methyl-1-(4-phenoxybenzyl)pyrrolidin-2-one] is 6 nM.

Staying with this experiment, now noted: Table 9; 37° C., 2 hours.
For the compound `CC(=O)S[C@@H]1CC(=O)N(Cc2ccc(Oc3ccc(Br)cc3)cc2)C1` [Example 199, (R)-4-Acetylthio-1-[4-(4′-bromophenoxy)benzyl]pyrrolidin-2-one], the IC50 was found to be 6 nM. As to `O=C1C[C@@H](S)CN1Cc1ccc(Oc2ccc(Br)cc2)cc1` [Example 200, (R)-4-Mercapto-1-[4-(4′-bromophenoxy)benzyl]pyrrolidin-2-one], the IC50 is 2 nM.

With “(R)-4-Acethylthio-1-[4-(4-chlorophenoxy)benzyl]pyrrolidin-2-one [Example 125]”, the IC50 worked out at 6.1 nM.

The same experiment, now with this note: Table 10; 37° C., 2 hours.
Take `CC(=O)SC1CC(=O)N(Cc2ccc(Cc3ccccc3)cc2)C1` (centres unmarked) [Example 159, 4-Acetylthio-1-(4-benzylbenzyl)pyrrolidin-2-one]: the IC50 turned out to be 500 nM.

`O=C1CC(S)CN1Cc1ccc(Cc2ccccc2)cc1` (centres unmarked) [Example 160, 4-Mercapto-1-(4-benzylbenzyl)pyrrolidin-2-one]: the concentration for half-maximal inhibition (IC50) came out at 90 nM. Still for that read-out and setting: the figure for `CC(=O)SC1CC(=O)N(Cc2ccc(C(=O)c3ccccc3)cc2)C1` (centres unmarked) [Example 161, 4-Acetylthio-1-(4-benzoylbenzyl)pyrrolidin-2-one] is 200 nM; for `O=C(c1ccccc1)c1ccc(CN2CC(S)CC2=O)cc1` (centres unmarked) [Example 162, 4-Mercapto-1-(4-benzoylbenzyl)pyrrolidin-2-one] it is 20 nM; for `CC(=O)SC1CC(=O)N(Cc2ccc(COc3ccccc3)cc2)C1` (centres unmarked) [Example 163, 4-Acetylthio-1-(4-phenoxymethylbenzyl)pyrrolidin-2-one] it is 500 nM.

As for `O=C1CC(S)CN1Cc1ccc(COc2ccccc2)cc1` (centres unmarked) [Example 164, 4-Mercapto-1-(4-phenoxymethylbenzyl)pyrrolidin-2-one], the IC50 is 80 nM. `CC(=O)SC1CC(=O)N(Cc2ccc(OCc3ccccc3)cc2)C1` (centres unmarked) [Example 165, 4-Acetylthio-1-(4-benzyloxybenzyl)pyrrolidin-2-one]: the 50% inhibitory concentration (IC50) is 1000 nM. For the compound `O=C1CC(S)CN1Cc1ccc(OCc2ccccc2)cc1` (centres unmarked) [Example 166, 4-Mercapto-1-(4-benzyloxybenzyl)pyrrolidin-2-one], the 50% inhibitory concentration (IC50) was 100 nM. On the same count and under the same terms, under `CC(=O)SC1CC(=O)N(Cc2ccc(CCc3ccccc3)cc2)C1` (centres unmarked) [Example 167, 4-Acetylthio-1-(4-phenethylbenzyl)pyrrolidin-2-one] stands 400 nM; under `O=C1CC(S)CN1Cc1ccc(CCc2ccccc2)cc1` (centres unmarked) [Example 168, 4-Mercapto-1-(4-phenethylbenzyl)pyrrolidin-2-one], 70 nM; under `CC(=O)SC1CC(=O)N(CCc2ccc(Oc3ccccc3)cc2)C1` (stereo not drawn) [Example 169, S-[5-Oxo-1-(4-phenoxyphenethyl)-3-pyrrolidinyl]ethanethioate], 7000 nM. In the case of `O=C1CC(S)CN1CCc1ccc(Oc2ccccc2)cc1` (centres unmarked) [Example 170, 1-(4-Phenoxyphenethyl)-4-sulfanyl-2-pyrrolidinone], the IC50 was determined as 500 nM. `CC(=O)SC1CC(=O)N(Cc2ccc([S+]([O-])c3ccccc3)cc2)C1` (centres unmarked) [Example 171, 4-Acetylthio-1-(4-phenylsulfinylbenzyl)pyrrolidin-2-one]: the IC50 is > 10000 nM. For the compound `O=C1CC(S)CN1Cc1ccc([S+]([O-])c2ccccc2)cc1` (centres unmarked) [Example 172, 4-Mercapto-1-(4-phenylsulfinylbenzyl)pyrrolidin-2-one], the concentration for half-maximal inhibition (IC50) is > 10000 nM. Take `CC(=O)SC1CC(=O)N(Cc2ccc(S(=O)(=O)c3ccccc3)cc2)C1` (centres unmarked) [Example 173, 4-Acetylthio-1-(4-phenylsulfonylbenzyl)pyrrolidin-2-one]: the IC50 was > 10000 nM. On the same count and under the same terms, the figure for `O=C1CC(S)CN1Cc1ccc(S(=O)(=O)c2ccccc2)cc1` (centres unmarked) [Example 174, 4-Mercapto-1-(4-phenylsulfonylbenzyl)pyrrolidin-2-one] is 510 nM. On the same count and under the same terms, the figure for `CC(=O)SC1CC(=O)N(C(=O)c2ccc(Oc3ccccc3)cc2)C1` (stereo not drawn) [Example 196, S-[5-Oxo-1-(4-phenoxybenzoyl)-3-pyrrolidinyl]ethanethioate] is > 10000 nM.

Staying with this experiment, now noted: Table 11; 37° C., 2 hours.
Turning to `CC(=O)SC1CC(=O)N(Cc2ccc(Oc3ccsc3)cc2)C1` (centres unmarked) [Example 157, 4-Acetylthio-1-[4-(3′-thienyloxy)benzyl]pyrrolidin-2-one], the IC50 was 6 nM. `O=C1CC(S)CN1Cc1ccc(Oc2ccsc2)cc1` (centres unmarked) [Example 158, 4-Mercapto-1-[4-(3′-thienyloxy)benzyl]pyrrolidin-2-one]: the half-inhibitory concentration (IC50) turned out to be 4 nM. Same read-out and setting: under `CC(=O)SC1CC(=O)N(CC2CCN(C(=O)c3ccccc3)CC2)C1` (centres unmarked) [Example 193, 4-Acetylthio-1-[(1-benzoyl-4-piperidyl)methyl]pyrrolidin-2-one] stands > 10000 nM; under `CC(=O)S[C@@H]1CC(=O)N(Cc2ccc(Oc3ccc4c(c3)OCO4)cc2)C1` [Example 198, S-{(3R)-1-{4-(1,3-benzodioxol-5-yloxy)benzyl]-5-oxopyrrolidinyl}ethanethioate], 12 nM.

In the case of `CC(=O)SC1CC(=O)N(Cc2ccc3oc4ccccc4c3c2)C1` (centres unmarked) [Example 201, 4-Acetylthio-1-(2-dibenzofuranmethyl)pyrrolidin-2-one], the IC50 came out at 300 nM. Consider `O=C1CC(S)CN1Cc1ccc2oc3ccccc3c2c1` (centres unmarked) [Example 202, 4-Mercapto-1-(2-dibenzofuranmethyl)pyrrolidin-2-one], for which the concentration for half-maximal inhibition (IC50) came out at 100 nM.

`CC(=O)SC1CC(=O)N(Cc2ccc(N(c3ccccc3)S(=O)(=O)c3ccc(C)cc3)cc2)C1` (centres unmarked) [Example 203, 4-Acetylthio-1-[4-(N-phenyl-N-p-toluenesulfonyl)aminobenzyl]pyrrolidin-2-one]: the half-inhibitory concentration (IC50) was > 10000 nM. Consider `Cc1ccc(S(=O)(=O)N(c2ccccc2)c2ccc(CN3CC(S)CC3=O)cc2)cc1` (centres unmarked) [Example 204, 4-Mercapto-1-[4-(N-phenyl-N-p-toluenesulfonylamino)benzyl]pyrrolidin-2-one], for which the IC50 was found to be 3900 nM.

The same experiment, now with this note: Table 12; 37° C., 2 hours.
For “S-[2-Oxo-1-(4-phenoxybenzyl)-4-piperidinyl]ethanethioate [Example 110]”, the IC50 worked out at 250 nM.

In the next experiment the test system is nasal cartilage. Description: Assay of cartilage collagen degradation inhibiting activity (IL-1β-stimulated nasal cartilage pieces, hydroxyproline release). In kind it is cell-based, cow. The note with it: 504 h; at 1 μM of compound; human recombinant IL-1β; incubation 3 weeks. The method, then: A nasal cartilage was isolated aseptically from a sacrificed cow, and preincubated in a Dulbecco's modified eagle medium containing 5% heat-inactivated fetal bovine serum, 100 units/ml of penicillin G and 100 units/ml of streptomycin at 37° C. under 5% CO2 and 95% air for 3 days. After completing the preincubation, a cartilage piece weighing about 10 mg was prepared and placed in 100 μl of a medium supplemented with a human recombinant interleukin-1β (IL-1β: *ZENZYME*) and a test compound. After incubating for 3 weeks in total during which the culture medium was replaced on the weekly basis, the total amount of hydroxyproline liberated into the culture medium and the amount of hydroxyproline remaining in the cartilage piece were determined and % collagen degradation was calculated. The collagen degradation inhibiting activity of a test compound was determined according to the following equation. Collagen degradation inhibiting activity (%)=100×(Ci−Cs)/(Ci−Cc) Equation: wherein Cc is % collagen degradation in the absence of both of IL-1β and compound, Ci is % collagen degradation in the presence of IL-1β, and Cs is a % collagen degradation in the presence of both of IL-1β and a test compound.
`O=C1C[C@@H](S)[C@H](COCc2ccccc2)N1Cc1ccc(Oc2ccccc2)cc1` (relative stereo) [Example 39, Trans-5-benzyloxymethyl-4-mercapto-1-(4-phenoxybenzyl)pyrrolidin-2-one]: the inhibition (in general, how much of the control response was suppressed) at 1 µM stood at 39%. Consider `CC(=O)S[C@@H]1CC(=O)N(Cc2ccc(Oc3ccccc3)cc2)C1` [Example 24, (R)-4-Acetylthio-1-(4-phenoxybenzyl)pyrrolidin-2-one], for which the inhibition at 1 µM was found to be 91%. The same measure, in the same setting: under `O=C1C[C@@H](S)CN1Cc1ccc(Oc2ccccc2)cc1` [Example 25, (R)-4-Mercapto-1-(4-phenoxybenzyl)pyrrolidin-2-one] stands 88%.
